Data: patent publication US5583115A, “Dialkyltiacumicin compounds” (Abbott Laboratories, priority 1995, dated 1996)
Values after ≈ are worked out from the molar mass of the structure shown. Read-outs that look alike come from different tables or passages of the source.

Experiments:
[1] = system: Bacteriodes fragilis; assay: MIC agar dilution, anaerobic bacteria; assay type: cell-based; details: 20 h
[2] = system: B. vulgatus; assay: MIC agar dilution, anaerobic bacteria; assay type: cell-based
[3] = system: B. disiens; assay: MIC agar dilution, anaerobic bacteria; assay type: cell-based; details: Prevotella disiens, 20 h
[4] = system: B. thetaiotaomicron; assay: MIC agar dilution, anaerobic bacteria; assay type: cell-based
[5] = system: B. loescheii; assay: MIC agar dilution, anaerobic bacteria; assay type: cell-based; details: Hoylesella loescheii, 20 h
[6] = system: B. bivius; assay: MIC agar dilution, anaerobic bacteria; assay type: cell-based; details: Prevotella bivia, 20 h
[7] = system: Fusobacterium nucleatum; assay: MIC agar dilution, anaerobic bacteria; assay type: cell-based; details: Fusobacterium nucleatum, 20 h
[8] = system: Fusobacterium species; assay: MIC agar dilution, anaerobic bacteria; assay type: cell-based; details: Fusobacterium, 20 h
[9] = system: Veillonella parvula; assay: MIC agar dilution, anaerobic bacteria; assay type: cell-based; details: Veillonella parvula, 20 h
[10] = system: Propionibacterium acnes; assay: MIC agar dilution, anaerobic bacteria; assay type: cell-based; details: Cutibacterium acnes, 20 h
[11] = system: Peptostreptococcus asaccharolyticus; assay: MIC agar dilution, anaerobic bacteria; assay type: cell-based; details: Peptoniphilus asaccharolyticus, 20 h
[12] = system: P. magnus; assay: MIC agar dilution, anaerobic bacteria; assay type: cell-based; details: Finegoldia magna, 20 h
[13] = system: P. species; assay: MIC agar dilution, anaerobic bacteria; assay type: cell-based; details: 20 h; Culture # 1776; read-out: MIC
[14] = system: P. anaerobius; assay: MIC agar dilution, anaerobic bacteria; assay type: cell-based; details: Peptostreptococcus anaerobius, 20 h
[15] = system: Clostridium perfringens; assay: microbe, parasite or virus in culture; assay type: cell-based; details: Clostridium perfringens, 20 h
[16] = system: C. ramosum; assay: MIC agar dilution, anaerobic bacteria; assay type: cell-based; details: Thomasclavelia ramosa, 20 h
[17] = system: C. difficile; assay: MIC agar dilution, anaerobic bacteria; assay type: cell-based; details: Clostridioides difficile, 20 h
[18] = system: E. coli; assay: MIC agar dilution, aerobic and facultative bacteria; assay type: cell-based; details: Escherichia coli, 20 h, read-out: MIC
[19] = system: Clostridium difficile; assay: In vivo hamster model of pseudomembranous Clostridium difficile induced colitis; details: for % Mortality: days 8-14, expiring by day 20
Method: (Suppression of normal gastrointestinal bacteria by the ciprofloxacin permitted the drug-resistant C. difficile to predominate.) Five additional hamsters were segregated as a noninfected control group.
The infected animals were divided into three groups comprising (a) 10 untreated animals; (b) 15 vancomycin-treated animals (5 each at 20, 10 and 1 mg/kg/day orally on days 8-14); and (c) 10 animals treated with the compound of Example 2 (5 each at 10 and 1 mg/kg/day on days 8-14). The subject animals were monitored for (a) body weight (infected hamsters lose significant body mass), and (b) mortality (percent expiring by day 20).

[20] = system: Staphylococcus aureus; assay: MIC agar dilution, aerobic and facultative bacteria; details: Staphylococcus aureus, 20 h
[21] = system: S. epidermidis; assay: as above; details: Staphylococcus epidermidis, 20 h
[22] = system: Enterococcus faecium; assay: as above; details: Enterococcus faecium, 20 h
[23] = system: Streptococcus bovis; assay: as above; details: Streptococcus equinus, 20 h
[24] = system: Streptococcus agalactiae; assay: as above; details: Streptococcus agalactiae, 20 h
[25] = system: S. pyogenes; assay: as above; details: Streptococcus pyogenes, 20 h
[26] = system: Micrococcus luteus; assay: as above; details: Micrococcus luteus, 20 h
[27] = system: Enterobacter aerogenes; assay: as above; details: Klebsiella aerogenes, 20 h
[28] = system: Klebsiella pneumoniae; assay: as above; details: Klebsiella pneumoniae, 20 h
[29] = system: Providencia stuartii; assay: as above; details: Providencia stuartii, 20 h
[30] = system: Pseudomonas aeruginosa; assay: as above
[31] = system: P. cepacia; assay: as above; details: Burkholderia cepacia, 20 h
[32] = system: Acinetobacter calcoaceticus; assay: as above; details: Acinetobacter calcoaceticus, 20 h
[33] = Bacteroides thetaiotaomicron, 20 h, Culture # 1764, read-out: MIC

Work on `CCC[C@@H]1C[C@@H](C(=O)N[C@@H]([C@H]2O[C@H](SC)[C@H](O)[C@@H](O)[C@H]2O)[C@H](C)Cl)N(C)C1` [Clindamycin] yielded an MIC ([1]; Culture # 1756, Wilkins-Chalgren agar, 37° C., 48 hours, read-out: MIC) of 1 µg/mL (≈ 2.35 µM), an MIC ([1]; Culture # 1757, read-out: MIC) of 1 µg/mL (≈ 2.35 µM) and an MIC ([1]; Culture # 1758, read-out: MIC) of 0.5 µg/mL (≈ 1.18 µM). For the same compound, the MIC ([1]; Culture # 1999, read-out: MIC) was 1 µg/mL (≈ 2.35 µM), the MIC ([2]; Culture # 2481) was 0.03 µg/mL (≈ 0.0706 µM) and the MIC ([2]; Phocaeicola vulgatus, 20 h, Culture # 1762, read-out: MIC) was 0.03 µg/mL (≈ 0.0706 µM). It also gave an MIC ([3]; Culture # 1763, read-out: MIC) of 0.015 µg/mL (≈ 0.0353 µM), an MIC [4, 33] of 4 µg/mL (≈ 9.41 µM) and an MIC ([4]; Culture # 1765) of 4 µg/mL (≈ 9.41 µM). It also gave an MIC ([4]; Culture # 1766) of 4 µg/mL (≈ 9.41 µM), an MIC ([5]; Culture # 1767, read-out: MIC) of 0.06 µg/mL (≈ 0.141 µM) and an MIC ([6]; Culture # 2483, read-out: MIC) of 0.015 µg/mL (≈ 0.0353 µM). The MIC ([7]; Culture # 2478, read-out: MIC) was 0.12 µg/mL (≈ 0.282 µM), the MIC ([8]; Culture # 1770, read-out: MIC) was 0.12 µg/mL (≈ 0.282 µM) and the MIC ([9]; Culture # 2479, read-out: MIC) was 0.06 µg/mL (≈ 0.141 µM). It also gave an MIC ([10]; Culture # 1775, read-out: MIC) of 0.06 µg/mL (≈ 0.141 µM), an MIC ([11]; Culture # 1777, read-out: MIC) of 0.03 µg/mL (≈ 0.0706 µM) and an MIC ([12]; Culture # 1778, read-out: MIC) of 1 µg/mL (≈ 2.35 µM). It also gave an MIC [13] of 0.06 µg/mL (≈ 0.141 µM), an MIC ([14]; Culture # 1780, read-out: MIC) of 0.06 µg/mL (≈ 0.141 µM) and an MIC ([15]; Culture # 1771) of 0.06 µg/mL (≈ 0.141 µM). For the same compound, the MIC ([15]; Culture # 1772) was 0.5 µg/mL (≈ 1.18 µM), the MIC ([15]; Culture # 1773) was 0.06 µg/mL (≈ 0.141 µM) and the MIC ([16]; Culture # 2482, read-out: MIC) was 1 µg/mL (≈ 2.35 µM). For the same compound, the MIC ([17]; Culture # 1496, read-out: MIC) was > 32 µg/mL, the MIC ([17]; Culture # 1497, read-out: MIC) was > 32 µg/mL and the MIC ([17]; Culture # 1774, read-out: MIC) was 0.5 µg/mL (≈ 1.18 µM). For the same compound, the MIC ([17]; Culture # 2025, read-out: MIC) was 4 µg/mL (≈ 9.41 µM), the MIC ([17]; Culture # 2480, read-out: MIC) was 4 µg/mL (≈ 9.41 µM) and the MIC ([17]; Culture # 2528, read-out: MIC) was 4 µg/mL (≈ 9.41 µM). For the same compound, the MIC ([17]; Culture # 2529, read-out: MIC) was 4 µg/mL (≈ 9.41 µM).

`CN[C@H](CC(C)C)C(=O)N[C@H]1C(=O)N[C@@H](CC(N)=O)C(=O)N[C@H]2C(=O)N[C@H]3C(=O)N[C@H](C(=O)N[C@H](C(=O)O)c4cc(O)cc(O)c4-c4cc3ccc4O)[C@H](O)c3ccc(c(Cl)c3)Oc3cc2cc(c3O[C@@H]2O[C@H](CO)[C@@H](O)[C@H](O)[C@H]2O[C@H]2C[C@](C)(N)[C@H](O)[C@H](C)O2)Oc2ccc(cc2Cl)[C@H]1O` [Vancomycin] was tested, and the MIC ([18]; DC-2, Culture # 1674) was > 200 µg/mL, the MIC ([18]; H560, Culture # 1675) was > 200 µg/mL and the MIC ([18]; Juhl, Culture # 1673) was > 200 µg/mL. The MIC ([18]; KNK437, Culture # 1676) was > 200 µg/mL, the MIC ([18]; SS, Culture # 2489) was 50 µg/mL (≈ 34.5 µM) and the MIC ([1]; Culture # 1756, Wilkins-Chalgren agar, 37° C., 48 hours) was 32 µg/mL (≈ 22.1 µM). For the same compound, the MIC ([1]; Culture # 1757) was 32 µg/mL (≈ 22.1 µM), the MIC ([1]; Culture # 1758) was 16 µg/mL (≈ 11 µM) and the MIC ([2]; Phocaeicola vulgatus, 20 h, Culture # 2481) was 64 µg/mL (≈ 44.2 µM). For the same compound, the MIC ([2]; Phocaeicola vulgatus, 20 h, Culture # 1762) was 32 µg/mL (≈ 22.1 µM), the MIC [3] was 32 µg/mL (≈ 22.1 µM) and the MIC [4, 33] was > 64 µg/mL. For the same compound, the MIC ([4]; Culture # 1765) was > 64 µg/mL, the MIC ([4]; Culture # 1766) was > 64 µg/mL and the MIC [5] was 32 µg/mL (≈ 22.1 µM). The MIC [6] was 32 µg/mL (≈ 22.1 µM), the MIC [7] was > 64 µg/mL and the MIC [8] was > 64 µg/mL. For the same compound, the MIC [9] was > 64 µg/mL, the MIC [10] was 0.5 µg/mL (≈ 0.345 µM) and the MIC [11] was 1 µg/mL (≈ 0.69 µM). For the same compound, the MIC [12] was 0.5 µg/mL (≈ 0.345 µM), the MIC [13] was 1 µg/mL (≈ 0.69 µM) and the MIC [14] was 0.5 µg/mL (≈ 0.345 µM). For the same compound, the MIC ([15]; Culture # 1771) was > 64 µg/mL, the MIC ([15]; Culture # 1772) was 0.5 µg/mL (≈ 0.345 µM) and the MIC ([15]; Culture # 1773) was 1 µg/mL (≈ 0.69 µM). It also gave an MIC [16] of 8 µg/mL (≈ 5.52 µM), an MIC ([17]; Culture # 1496) of 0.5 µg/mL (≈ 0.345 µM) and an MIC ([17]; Culture # 1497) of 0.5 µg/mL (≈ 0.345 µM). For the same compound, the MIC ([17]; Culture # 1774) was 2 µg/mL (≈ 1.38 µM), the MIC ([17]; Culture # 2025) was 0.5 µg/mL (≈ 0.345 µM) and the MIC ([17]; Culture # 2480) was > 64 µg/mL. For the same compound, the MIC ([17]; Culture # 2528) was 1 µg/mL (≈ 0.69 µM), the MIC ([17]; Culture # 2529) was 1 µg/mL (≈ 0.69 µM) and the “rapidity of mortality” value ([19]; 1 mg/kg versus 10 or 20 mg/kg) was “more rapid mortality than hamsters treated at 10 or 20 mg/kg”. The “% Mortality” value ([19]; 1 mg/kg/day) was 100%, the “% Mortality” value ([19]; 10 mg/kg/day) was 100% and the “% Mortality” value ([19]; 20 mg/kg/day, orally) was 100%. For the same compound, the MIC ([20]; Culture # 1662, brain heart infusion agar, 37° C.) was 3.1 µg/mL (≈ 2.14 µM), the MIC ([20]; Culture # 1664) was 1.56 µg/mL (≈ 1.08 µM) and the MIC ([20]; Culture # 1690) was 1.56 µg/mL (≈ 1.08 µM). For the same compound, the MIC ([20]; Culture # 2124) was 3.1 µg/mL (≈ 2.14 µM), the MIC ([20]; Culture # 2130) was 3.1 µg/mL (≈ 2.14 µM) and the MIC ([20]; Culture # 2498) was 3.1 µg/mL (≈ 2.14 µM). The MIC ([20]; cipro res., Culture # 3384) was 1.56 µg/mL (≈ 1.08 µM), the MIC [21] was 3.1 µg/mL (≈ 2.14 µM) and the MIC [22] was 3.1 µg/mL (≈ 2.14 µM). It also gave an MIC [23] of 0.78 µg/mL (≈ 0.538 µM), an MIC [24] of 3.1 µg/mL (≈ 2.14 µM) and an MIC ([25]; Culture # 1671) of 3.1 µg/mL (≈ 2.14 µM). The MIC ([25]; const., Culture # 1672) was 0.78 µg/mL (≈ 0.538 µM), the MIC ([25]; inducible, Culture # 2548) was 0.78 µg/mL (≈ 0.538 µM) and the MIC ([26]; Culture # 2493) was 0.78 µg/mL (≈ 0.538 µM). The MIC ([26]; Culture # 2517) was 3.1 µg/mL (≈ 2.14 µM), the MIC [27] was > 200 µg/mL and the MIC [28] was > 200 µg/mL. For the same compound, the MIC [29] was > 200 µg/mL, the MIC ([30]; Culture # 1680) was > 200 µg/mL and the MIC ([30]; Culture # 1681) was > 200 µg/mL. For the same compound, the MIC ([30]; Culture # 1682) was > 200 µg/mL, the MIC ([30]; Pseudomonas aeruginosa, 20 h) was > 200 µg/mL and the MIC ([30]; cipro R, Culture # 1919) was > 200 µg/mL. For the same compound, the MIC ([30]; cipro R, Culture # 1920) was > 200 µg/mL, the MIC [31] was > 200 µg/mL and the MIC [32] was > 200 µg/mL.
